Data as given in US6303292A, “Immunoreactive polypeptide compositions” (Chiron Corporation, priority 1998, dated 2001).
Entries after “also recorded” stand apart in the source; their conditions may differ.

Tested on: antibodies in the Q1 and Q3 plasma (patient Q)
Test: ELISA on Q1 and Q3 specific 12-mer peptides reacted with Q1 and Q3 plasma
Format: binding, human
Conditions: for binding of plasma to the peptide versus background binding to a panel of 12 randomly chosen control peptides (Student's Test): Q1/Q3 plasma
Description: Polystyrene plates (Nunc immuno plate maxisorb F96) were coated with streptavidin by incubating overnight at 4° C. with 0.1 ml/well of a 5 μg/ml solution of streptavidin (Sigma Cat. No. S4762) in 0.1 M carbonate buffer at pH 9.6. After removal of the streptavidin solution, the wells were washed four times with a 0.1% solution of Tween 20 in PBS. Nonspecific binding was blocked by incubating each well with 0.2 ml of 2% BSA in PBS for 1 h at 20° C. The wells were again washed four times with PBS/Tween 20. Plates were air-dried and stored at 4° C. until required. The streptavidin in each well was coupled to cleaved peptides by incubation with 100 μl of a 1:100 dilution of cleaved peptide solution with 0.1% BSA in PBS containing 0.1% sodium azide for 1 h at 20° C. After incubation, the plate was washed four times with PBS/Tween 20. Each well was incubated with 100 μl of a suitable dilution of serum (diluted with 2% BSA in PBS containing 0.1% sodium azide) for 1 h at 20° C. or overnight at 4° C. followed by four washes with PBS/Tween 20. Bound antibody was detected by reaction for 1 h at 20° C. in 0.1 ml conjugate. This consisted of 0.25 ml/l (a saturating level) of horseradish peroxidase-labeled goat anti-rabbit IgG (H+L) (Kirkegaard and Perry Labs, Gaithersburg, Md.) in CASS (0.1% sheep serum, 0.1% Tween 20, 0.1% sodium caseinate diluted in 0.1M PBS, pH 7.2). The wells were washed 2 times with PBS/Tween 20 followed by two washes with PBS only. The presence of enzyme was detected by reaction for 45 min at 20° C. with 0.1 ml of a freshly-prepared solution containing 50 mg of ammonium 2,2'azino-bis[3-ethylbenzothiazoline-6-sulphonate (ABTS, Boehringer Mannheim Cat. no. 122661) and 0.03 ml of 35% (w/w) hydrogen peroxide solution in 100 ml of 0.1 M phosphate/0.08 M citrate buffer, pH 4.0. Color development was measured in a Titertek Multiscan MC plate reader in the dual wavelength mode at 405 nm against a reference wavelength of 492 nm.
To examine the effect of the amino acid substitutions observed in the Q1 and Q3 E2 HV domains on antibody binding, we synthesized a Q1 and Q3 specific 12-mer peptide from amino acids 396 to 407 (HVE Q1 or Q3 in FIG. 7B) and separately reacted the Q1 and Q3 plasma with each peptide in an ELISA.

Sequence | binding of plasma to the peptide versus background binding to a panel of 12 randomly chosen control peptides (Student's Test) | Elisa Results on 12-mer Peptides, Mean (Q1 plasma) | Elisa Results on 12-mer Peptides, Mean (Q3 plasma) | reaction of antibodies in patient Q plasma with the peptide in ELISA (Q1 and Q3 plasma, peptides amino acids 396-407)
TAGFVRLFETGP [Q3 peptide, Q3 specific 12-mer peptide from amino acids 396 to 407 of the HCV E2/NS1 HV domain] | not statistically significant | 0.691 | 0.693 | –
TARFAGFFQSGA [Q1 peptide, Q1 specific 12-mer peptide from amino acids 396 to 407 of the HCV E2/NS1 HV domain] | significantly above background binding | 1.158 | 1.022 | reacted with the Q1 peptide; also recorded: developed an antibody response to the Q1 peptide
